Results as given in doi:10.1101/2025.08.21.671483v1, “In vitro and in vivo activity profiles of broad-spectrum bacterial ATP synthase inhibitors” (biorxiv, 2025).
In brackets after ≈: the same amount, converted by molar mass. Where two headings read alike, the source gives them in different places.

Assays:
[1] = test system: T1, Escherichia coli ATCC 35218; assay: microbe, parasite or virus in culture; parameters: species or system bacteria; CLSI broth microdilution MIC, no visible growth
T1 construct: ATCC 35218

[2] = test system: T2, Escherichia coli 70122 CW-2007; assay: microbe, parasite or virus in culture; parameters: species or system bacteria; CLSI broth microdilution MIC, no visible growth
T2 construct: 70122 CW-2007

Escherichia coli ec309 = test system: T3, Escherichia coli ec309; assay: microbe, parasite or virus in culture; parameters: species or system bacteria; CLSI broth microdilution MIC, no visible growth
T3 construct: ec309

Escherichia coli ec308 = test system: T4, Escherichia coli ec308; assay: microbe, parasite or virus in culture; parameters: species or system bacteria; CLSI broth microdilution MIC, no visible growth
T4 construct: ec308

Escherichia coli ec302 = test system: T5, Escherichia coli ec302; assay: microbe, parasite or virus in culture; parameters: species or system bacteria; CLSI broth microdilution MIC, no visible growth
T5 construct: ec302

[3] = test system: T6, Escherichia coli ATCC BAA2471; assay: microbe, parasite or virus in culture; parameters: species or system bacteria; CLSI broth microdilution MIC, no visible growth
T6 construct: ATCC BAA-2471

Escherichia coli ec305 = test system: T7, Escherichia coli ec305; assay: microbe, parasite or virus in culture; parameters: species or system bacteria; CLSI broth microdilution MIC, no visible growth
T7 construct: ec305

[4] = test system: T8, Escherichia coli 95882 CW-2011; assay: microbe, parasite or virus in culture; parameters: species or system bacteria; CLSI broth microdilution MIC, no visible growth
T8 construct: 95882 CW-2011

Escherichia coli ec310 = test system: T9, Escherichia coli ec310; assay: microbe, parasite or virus in culture; parameters: species or system bacteria; CLSI broth microdilution MIC, no visible growth
T9 construct: ec310

E. coli ATCC 25922 [5] = test system: T10, E. coli ATCC 25922; assay: microbe, parasite or virus in culture; parameters: species or system bacteria; CLSI broth microdilution MIC, no visible growth; conditions: Escherichia coli
T10 construct: ATCC 25922

E. coli ATCC 25922 [6] = test system: T10, E. coli ATCC 25922; assay: microbe, parasite or virus in culture; parameters: species or system bacteria; CLSI broth microdilution MIC, no visible growth; conditions: Escherichia coli; remark: listed apart in the source
E. coli MC4100 acrAB = test system: T11, E. coli MC4100 acrAB; assay: microbe, parasite or virus in culture; conditions: Escherichia coli, MC4100ACRAB, read-out: MIC
T11 construct: MC4100 acrAB efflux-deficient

E. coli ATP synthase = biological target: T12, E. coli ATP synthase (Escherichia coli, UniProt P68699); assay: ATP production by membrane vesicles, luciferase luminescence; assay type: biochemical; conditions: […] NADH, 1 mM ADP, 10 mM potassium phosphate; 30 min preincubation, 60 min reaction
T12 construct: gene atpE
Excerpt: ATP production by membrane vesicles, luciferase luminescence on E. coli ATP synthase

E. coli MC4100 lptD4213 = test system: T13, E. coli MC4100 lptD4213; assay: microbe, parasite or virus in culture; conditions: Escherichia coli, MC4100LPTD4213, read-out: MIC
T13 construct: MC4100 lptD4213 membrane-compromised

S. aureus ATP synthase = biological target: T14, S. aureus ATP synthase (Staphylococcus aureus, UniProt Q99SF0); assay: ATP production by membrane vesicles, luciferase luminescence; assay type: biochemical; conditions: […] NADH, 1 mM ADP, 10 mM potassium phosphate; 30 min preincubation, 60 min reaction
T14 construct: gene atpE
Excerpt: ATP production by membrane vesicles, luciferase luminescence on S. aureus ATP synthase

[7] = test system: T15, S. aureus ATCC 29740 (Newbould); assay: microbe, parasite or virus in culture; parameters: species or system bacteria; CLSI broth microdilution MIC, no visible growth; conditions: Staphylococcus aureus
T15 construct: ATCC 29740 (Newbould)

E. coli MC4100 WT = test system: T16, E. coli MC4100 WT; assay: microbe, parasite or virus in culture; parameters: species or system bacteria; CLSI broth microdilution MIC, no visible growth; conditions: Escherichia coli, MC4100WT
T16 construct: MC4100 (ATCC 35695)

S. aureus ATCC 29740hemB = assay: microbe, parasite or virus in culture; conditions: Staphylococcus aureus, ATCC29740HEMB, read-out: MIC
[8] = test system: T17, Escherichia coli ATCC 25922; assay: microbe, parasite or virus in culture; conditions: ATCC25922, read-out: MIC (ug/ml) first column
T17 construct: ATCC 25922

SMILES: O=C1CN(/N=C/c2ccc([N+](=O)[O-])o2)C(=O)N1 [NIT, nitrofurantoin]
- MIC ([1]; ATCC35218, read-out: NIT MIC): 0.25 µg/mL (≈ 1.05 µM)
- MIC ([2]; 70122CW2007, read-out: NIT MIC): 32 µg/mL (≈ 134 µM)
- MIC (Escherichia coli ec309; EC309, read-out: NIT MIC): 16 µg/mL (≈ 67.2 µM)
- MIC (Escherichia coli ec308; EC308, read-out: NIT MIC): 8 µg/mL (≈ 33.6 µM)
- MIC (Escherichia coli ec302; EC302, read-out: NIT MIC): 16 µg/mL (≈ 67.2 µM)
- MIC ([3]; ATCCBAA2471, read-out: NIT MIC): 32 µg/mL (≈ 134 µM)
- MIC (Escherichia coli ec305; EC305, read-out: NIT MIC): 8 µg/mL (≈ 33.6 µM)
- MIC ([4]; 95882CW2011, read-out: NIT MIC): 8 µg/mL (≈ 33.6 µM)
- MIC (Escherichia coli ec310; EC310, read-out: NIT MIC): 8 µg/mL (≈ 33.6 µM)
- MIC (E. coli ATCC 25922 [5]; ATCC25922, read-out: NIT MIC): 8 µg/mL (≈ 33.6 µM)

SMILES: C[C@H]1CC[C@]2(NC1)O[C@H]1C[C@H]3[C@@H]4CC[C@H]5CC(NC[C@H](N)Cc6ccc(C(F)(F)F)cc6)CC[C@]5(C)[C@H]4CC[C@]3(C)[C@H]1[C@@H]2C (stereo partly drawn) [TM-303]
- MIC (E. coli ATCC 25922 [6]; ATCC25922, read-out: TM-303 MIC): 8 µg/mL (≈ 13 µM)
- MIC (E. coli MC4100 acrAB): 4 µg/mL (≈ 6.49 µM)
- IC50 (E. coli ATP synthase): 3.15 ± 0.73 µM
- MIC (E. coli MC4100 lptD4213): 2 µg/mL (≈ 3.25 µM)
- IC50 (S. aureus ATP synthase): 1.32 ± 0.22 µM
- MIC ([7]; ATCC29740, read-out: TM-303 MIC): 4 µg/mL (≈ 6.49 µM)
- MIC (E. coli MC4100 WT; read-out: TM-303 MIC): 16 µg/mL (≈ 26 µM)
- MIC (S. aureus ATCC 29740hemB): ≤ 0.25 µg/mL

SMILES: C[C@H]1CC[C@]2(NC1)O[C@H]1C[C@H]3[C@@H]4CC[C@H]5CC(NCCN)CC[C@]5(C)[C@H]4CC[C@]3(C)[C@H]1[C@@H]2C (mixture of isomers) [TM-02]
- MIC (E. coli ATCC 25922 [6]; ATCC25922, read-out: TM-02 MIC): 32 µg/mL
- MIC (E. coli MC4100 acrAB): 8 µg/mL
- MIC ([1]; ATCC35218, read-out: Table 3 TM-02 MIC): 32 µg/mL
- MIC ([2]; 70122CW2007, read-out: Table 3 TM-02 MIC): 16 µg/mL
- MIC (Escherichia coli ec309; EC309, read-out: Table 3 TM-02 MIC): 32 µg/mL
- MIC (Escherichia coli ec308; EC308, read-out: Table 3 TM-02 MIC): 8 µg/mL
- MIC (Escherichia coli ec302; EC302, read-out: Table 3 TM-02 MIC): 32 µg/mL
- MIC ([3]; ATCCBAA2471, read-out: Table 3 TM-02 MIC): 32 µg/mL
- MIC (Escherichia coli ec305; EC305, read-out: Table 3 TM-02 MIC): 4 µg/mL
- MIC ([4]; 95882CW2011, read-out: Table 3 TM-02 MIC): 32 µg/mL
- MIC (Escherichia coli ec310; EC310, read-out: Table 3 TM-02 MIC): 32 µg/mL
- IC50 (E. coli ATP synthase): 1.49 ± 0.28 µM
- MIC (E. coli MC4100 lptD4213): 0.5 µg/mL
- IC50 (S. aureus ATP synthase): 0.51 ± 0.17 µM
- MIC [8]: 32 µg/mL
- MIC ([7]; ATCC29740, read-out: TM-02 MIC): 4 µg/mL
- MIC (E. coli MC4100 WT; read-out: TM-02 MIC): 16 µg/mL
- MIC (S. aureus ATCC 29740hemB): ≤ 0.25 µg/mL

SMILES: CC(C)(O/N=C(\C(=O)N[C@@H]1C(=O)N2C(C(=O)[O-])=C(C[n+]3ccccc3)CS[C@H]12)c1csc(N)n1)C(=O)O [CAZ, ceftazidime]
- MIC ([1]; ATCC35218, read-out: CAZ MIC): 0.25 µg/mL (≈ 0.457 µM)
- MIC ([2]; 70122CW2007, read-out: CAZ MIC): 64 µg/mL (≈ 117 µM)
- MIC (Escherichia coli ec309; EC309, read-out: CAZ MIC): 64 µg/mL (≈ 117 µM)
- MIC (Escherichia coli ec308; EC308, read-out: CAZ MIC): 128 µg/mL (≈ 234 µM)
- MIC (Escherichia coli ec302; EC302, read-out: CAZ MIC): > 128 µg/mL
- MIC ([3]; ATCCBAA2471, read-out: CAZ MIC): > 128 µg/mL
- MIC (Escherichia coli ec305; EC305, read-out: CAZ MIC): 1 µg/mL (≈ 1.83 µM)
- MIC ([4]; 95882CW2011, read-out: CAZ MIC): 128 µg/mL (≈ 234 µM)
- MIC (Escherichia coli ec310; EC310, read-out: CAZ MIC): 64 µg/mL (≈ 117 µM)
- MIC (E. coli ATCC 25922 [5]; ATCC25922, read-out: CAZ MIC): 0.12 µg/mL (≈ 0.22 µM)

SMILES: C[C@H]1CC[C@]2(NC1)O[C@H]1C[C@H]3[C@@H]4CC[C@H]5CC(NC[C@H](N)Cc6c[nH]c7ccccc67)CC[C@]5(C)[C@H]4CC[C@]3(C)[C@H]1[C@@H]2C (stereo partly drawn) [TM-247]
- MIC (E. coli ATCC 25922 [6]; ATCC25922, read-out: TM-247 MIC): 8 µg/mL (≈ 13.6 µM)
- MIC (E. coli MC4100 acrAB): 4 µg/mL (≈ 6.82 µM)
- IC50 (E. coli ATP synthase): 2.12 ± 0.32 µM
- MIC (E. coli MC4100 lptD4213): 2 µg/mL (≈ 3.41 µM)
- IC50 (S. aureus ATP synthase): 1.06 ± 0.24 µM
- MIC ([7]; ATCC29740, read-out: TM-247 MIC): 2 µg/mL (≈ 3.41 µM)
- MIC (E. coli MC4100 WT; read-out: TM-247 MIC): 16 µg/mL (≈ 27.3 µM)
- MIC (S. aureus ATCC 29740hemB): ≤ 0.25 µg/mL
